Experiments:
Format in all cases: in vivo
Barnyard grass [1] = experiment: Herbicidal activity test for indoor pre-emergence soil treatment; parameters: key: level 1-9; higher = more weed remaining vs blank control; conditions: 150 g a.i./ha, visual inspection 21 days after treatment
Summary of the method: (§1)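 Pre-emergence test following NY/T 1155.3-2006: weed seeds were sown in moistened neutral sandy loam (≤2% organic matter) and covered with 0.5–2.0 cm of soil. After 24 h, the soil was sprayed with a 10% EC diluted in water at 150 g(a.i.)/ha. Damage was scored visually on a 1–9 scale at 21 days.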

Piemarker [2] = experiment: as above; parameters: key: level 1-9; higher = more weed remaining vs blank control; conditions: 150 g a.i./ha, visual inspection 21 days after treatment
Summary of the method: as §1

green bristlegrass [3] = experiment: as above; parameters: key: level 1-9; higher = more weed remaining vs blank control; conditions: 150 g a.i./ha, visual inspection 21 days after treatment
Summary of the method: as §1

Amaranthus retroflexus [4] = experiment: as above; parameters: key: 1-9 levels; higher = more weed remaining vs blank control; conditions: 150 g a.i./ha, visual inspection 21 days after treatment
Summary of the method: as §1

Digitaria sanguinalis [5] = experiment: as above; parameters: key: 1-9 levels; higher = more weed remaining vs blank control; conditions: 150 g a.i./ha, visual inspection 21 days after treatment
Summary of the method: as §1

Humulus scandens [6] = experiment: as above; conditions: 150 g a.i./ha, visual inspection 21 days after treatment
Summary of the method: as §1

Amaranthus retroflexus [7] = experiment: Herbicidal activity test for indoor post-emergence spraying on stems and leaves; parameters: key: grade level by weed remaining vs blank control, e.g. 5 = 10.1-15%; conditions: 150 g a.i./ha, visual inspection 21 days after treatment
Summary of the method: (§2)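 Greenhouse-grown weeds, post-emergence foliar spray (NY/T 1155.4-2006 method); visual scoring at 21 d post-treatment as levels vs. untreated blank control (e.g., level 5 = 10.1–15%, level 8 = 35.1–67.5% of control weed).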

Barnyard grass [8] = experiment: as above; parameters: key: grade level by weed remaining vs blank control, e.g. 5 = 10.1-15%; conditions: 150 g a.i./ha, visual inspection 21 days after treatment
Summary of the method: as §2

Digitaria sanguinalis [9] = experiment: as above; parameters: key: grade level by weed remaining vs blank control, e.g. 5 = 10.1-15%; conditions: 150 g a.i./ha, visual inspection 21 days after treatment
Summary of the method: as §2

Humulus scandens [10] = experiment: as above; parameters: key: grade level by weed remaining vs blank control, e.g. 5 = 10.1-15%; conditions: 150 g a.i./ha, visual inspection 21 days after treatment
Summary of the method: as §2

Piemarker [11] = experiment: as above; parameters: key: grade level by weed remaining vs blank control, e.g. 5 = 10.1-15%; conditions: 150 g a.i./ha, visual inspection 21 days after treatment
Summary of the method: as §2

green bristlegrass [12] = experiment: as above; parameters: key: grade level by weed remaining vs blank control, e.g. 5 = 10.1-15%; conditions: 150 g a.i./ha, visual inspection 21 days after treatment
Summary of the method: as §2

Broadleaf weed = experiment: Post-emergence herbicidal activity test in a paddy field; parameters: key: level scale; higher level = more weed left vs blank control; conditions: 150 g a.i./ha (penoxsulam control 250 g(a.i.)/h)
Summary of the method: (§3)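 Efficacy was visually estimated 15 and 30 days after spraying, grading weed coverage relative to an untreated neighbouring plot (level 2 = 0 to 2.5%, level 9 = 67.6 to 100%). Treatments were 150 g(a.i.)/ha from 10% emulsifiable concentrates applied at the 4-5 leaf rice stage, four repeats of 50 m^2 each.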

Cyperaceae = experiment: as above; parameters: key: level scale; higher level = more weed left vs blank control; conditions: 150 g a.i./ha (penoxsulam control 250 g(a.i.)/h)
Summary of the method: as §3

Gramineae = experiment: as above; parameters: key: level scale; higher level = more weed left vs blank control; conditions: 150 g a.i./ha (penoxsulam control 250 g(a.i.)/h)
Summary of the method: as §3

Acalypha australis = experiment: Field test for weed control in a corn field
Summary of the method: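 Herbicidal activity against weeds was assessed in corn plots by the GB/T 17980.42-2000 method. Corn at the 2–5 leaf stage received water sprays of 10% emulsifiable concentrates at 150 g(a.i.)/ha, four repeats per treatment over 20 m^2. A 25% mesotrione oil dispersion was the reference. Damage symptoms and severity were rated on levels 1-9 relative to weeds in the blank control area.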

Amaranthus retroflexus [13] = experiment: Field test for weed control in a corn field
Summary of the method: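 Post-emergence control of Amaranthus retroflexus was assessed in corn plots using the GB/T 17980.42-2000 method. Emulsifiable concentrates (10%) in water were applied by spraying at the 2- to 5-leaf crop stage on 20 m^2 plots, four replicates each, alongside a mesotrione 25% oil dispersion reference. Herbicidal activity was scored on 1-9 levels by weed amount relative to blank control areas.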

Barnyard grass [14] = experiment: Field test for weed control in a corn field
Summary of the method: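 Herbicidal activity against barnyard grass was assessed in corn field plots of 20 m^2, with four replicates per treatment. Compounds were applied as water-diluted 10% emulsifiable concentrates at 150 g(a.i.)/ha at the 2-5 leaf corn stage, with 25% mesotrione oil dispersion as the reference agent. Damage was scored on a 1-9 scale against untreated blank plots.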

Chenopodium album = experiment: Field test for weed control in a corn field
Summary of the method: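 Field weed-control testing in corn, run per GB/T 17980.42-2000, scored Chenopodium album on a 1-9 level scale, where each level matches a percentage range of weed remaining relative to the blank control area. Sprays of 10% emulsifiable concentrates in water delivered 150 g(a.i.)/ha at the corn 2-leaf to 5-leaf stage on 20 m^2 plots, four replicates each. Mesotrione 25% oil dispersion served as reference.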

Convolvulus arvensis = experiment: Field test for weed control in a corn field
Summary of the method: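 Post-emergence herbicidal activity on Convolvulus arvensis was scored in a corn field on a 1-9 scale, based on symptoms and damage severity. Each level corresponds to the weed remaining as a percentage of the blank control area. Sprays of 10% emulsifiable concentrate at 150 g(a.i.)/ha went on at the corn 2–5 leaf stage, with four replicates of 20 m^2 per treatment.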

Digitaria sanguinalis [15] = experiment: Field test for weed control in a corn field
Summary of the method: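 Field trial in a corn field following GB/T 17980.42-2000. Test compounds were formulated as 10% emulsifiable concentrates, diluted in water and sprayed post-emergence at 150 g(a.i.)/ha when corn had 2 to 5 leaves, with 4 replicates on 20 m^2 plots. Control of Digitaria sanguinalis was scored on a 1-9 scale based on weed damage relative to the untreated blank area.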

Portulaca oleracea = experiment: Field test for weed control in a corn field
Summary of the method: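 Post-emergence weed control was evaluated in a corn field by the GB/T 17980.42-2000 method. Emulsifiable concentrates (10%) in water were applied as sprays at 150 g(a.i.)/ha at the 2-5 leaf corn stage, in four replicate 20 m^2 plots. A 25% mesotrione oil dispersion served as control agent. Effects were graded 1-9 relative to weed remaining in blank control areas.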

Solanum nigrum = experiment: Field test for weed control in a corn field
Summary of the method: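 In a corn field trial based on GB/T 17980.42-2000, 10% emulsifiable concentrates diluted in water were sprayed at 150 g(a.i.)/ha at the 2 to 5 leaf stage of corn. Each treatment used 20 m^2 plots and was repeated 4 times, with 25% mesotrione oil dispersion as the reference agent. Solanum nigrum damage was scored on a 1-9 scale against blank control plots.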

goosegrass = experiment: Field test for weed control in a corn field
Summary of the method: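 In this field trial in corn, run per GB/T 17980.42-2000, test agents prepared as 10% emulsifiable concentrates were applied in water as sprays at 150 g(a.i.)/ha at the 2- to 5-leaf corn stage. Each treatment covered 20 m^2 and was repeated 4 times. Goosegrass control was scored 1-9 relative to weed remaining in blank control areas.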

green bristlegrass [16] = experiment: Field test for weed control in a corn field
Summary of the method: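 Herbicidal activity against green bristlegrass was assessed in corn field plots of 20 m^2 per GB/T 17980.42-2000. Test agents, formulated as 10% emulsifiable concentrates, were applied in water at 150 g(a.i.)/ha at the corn 2 leaves to 5 leaves stage, repeated 4 times. A 25% mesotrione oil dispersion served as the control agent, and weed damage was rated on levels 1-9.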

nutgrass flatsedge = experiment: Field test for weed control in a corn field
Summary of the method: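 Herbicidal effect on nutgrass flatsedge was measured in a field planted with corn, using the GB/T 17980.42-2000 method. Emulsifiable concentrates (10%) in water were sprayed at 150 g(a.i.)/ha during the 2-leaf to 5-leaf corn stage, on 20 m^2 plots repeated 4 times. 25% mesotrione oil dispersion was the control agent. Activity was scored from 1 to 9 by weed remaining relative to blank control plots.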

[17] = 150 g(a.i.)/ha, 21 days after treatments
[18] = 150 g a.i./ha, 30 days after treatment

Cc1cccc(C(=O)NCc2cc(Cl)cc(Cl)c2)c1 [Compound B08]
Herbicidal Activity Barnyard grass (Barnyard grass [1]): 2 (equivalent to 0 to 2.5% of the weed in the blank control area)
Herbicidal Activity Piemarker (Piemarker [2]): 2 (equivalent to 0 to 2.5% of the weed in the blank control area)
Herbicidal Activity Green bristlegrass (green bristlegrass [3]): 2 (equivalent to 0 to 2.5% of the weed in the blank control area)
Herbicidal Activity Amaranthus retroflexus (Amaranthus retroflexus [4]): 1
Herbicidal Activity Digitaria sanguinalis (Digitaria sanguinalis [5]): 2 (equivalent to 0 to 2.5% of the weed in the blank control area)
Herbicidal Activity Humulus scandens (Humulus scandens [6]): 2 (equivalent to 0 to 2.5% of the weed in the blank control area)
Herbicidal Activity Amaranthus retroflexus (Amaranthus retroflexus [7]): 1
Herbicidal Activity Barnyard grass (Barnyard grass [8]): 1
Herbicidal Activity Digitaria sanguinalis (Digitaria sanguinalis [9]): 1
Herbicidal Activity Humulus scandens (Humulus scandens [10]): 1
Herbicidal Activity Piemarker (Piemarker [11]): 1
Herbicidal Activity Green bristlegrass (green bristlegrass [12]): 2 (equivalent to 0 to 2.5% of the weed in the blank control area)
Herbicidal activity 15 days after treatment Broadleaf weed (Broadleaf weed; 15 days after treatment): 2 (equivalent to 0 to 2.5% of the weed in the blank control area)
Herbicidal activity 30 days after treatment Broadleaf weed (Broadleaf weed; 30 days after treatment): 1
Herbicidal activity 15 days after treatment Cyperaceae (Cyperaceae; 15 days after treatment): 1
Herbicidal activity 30 days after treatment Cyperaceae (Cyperaceae; 30 days after treatment): 1
Herbicidal activity 15 days after treatment Gramineae (Gramineae; 15 days after treatment): 2 (equivalent to 0 to 2.5% of the weed in the blank control area)
Herbicidal activity 30 days after treatment Gramineae (Gramineae; 30 days after treatment): 2 (equivalent to 0 to 2.5% of the weed in the blank control area)
Post-emergence weed control effect, Acalypha australis (Acalypha australis; 150 g a.i./ha, after treatment): 1
controlling effect on Acalypha australis (Acalypha australis; [17]): 1
Post-emergence weed control effect, Amaranthus retroflexus (Amaranthus retroflexus [13]; [18]): 1
controlling effect on Amaranthus retroflexus (Amaranthus retroflexus [13]; [17]): 1
Post-emergence weed control effect, Barnyard grass (Barnyard grass [14]; [18]): 1
controlling effect on barnyard grass (Barnyard grass [14]; [17]): 1
Post-emergence weed control effect, Chenopodium album (Chenopodium album; 150 g a.i./ha, after treatment): 1
controlling effect on Chenopodium album (Chenopodium album; [17]): 1
Post-emergence weed control effect, Convolvulus arvensis (Convolvulus arvensis; 150 g a.i./ha, after treatment): 1
controlling effect on Convolvulus arvensis (Convolvulus arvensis; [17]): 1
Post-emergence weed control effect, Digitaria sanguinalis (Digitaria sanguinalis [15]; 150 g a.i./ha, after treatment): 1
controlling effect on Digitaria sanguinalis (Digitaria sanguinalis [15]; [17]): 1
Post-emergence weed control effect, Portulaca oleracea (Portulaca oleracea; 150 g a.i./ha, after treatment): 1
controlling effect on Portulaca oleracea (Portulaca oleracea; [17]): 1
Post-emergence weed control effect, Solanum nigrum (Solanum nigrum; [18]): 1
controlling effect on Solanum nigrum (Solanum nigrum; [17]): 1
Post-emergence weed control effect, Goose grass (goosegrass; 150 g a.i./ha, after treatment): 1
controlling effect on goosegrass (goosegrass; [17]): 1
Post-emergence weed control effect, Green bristlegrass (green bristlegrass [16]; 150 g a.i./ha, after treatment): 1
controlling effect on green bristlegrass (green bristlegrass [16]; [17]): 1
Post-emergence weed control effect, Nutgrass flatsedge (nutgrass flatsedge; 150 g a.i./ha, after treatment): 1
controlling effect on nutgrass flatsedge (nutgrass flatsedge; [17]): 1

Source: patent publication US20220330549A1, “USE OF N-BENZYLBENZAMIDE-BASED COMPOUND AS HERBICIDE” (Northwest A&F University, priority 2020, published 2022)
